From patent US20180353501A1 (Arvinas, Inc., priority 2017, published 2018)

Target: T1, p38δ:PROTAC:VHL ternary complex (Homo sapiens, UniProt O15264+P40337)
T1 construct: encoding a region spanning amino acids 1-365 was PCR-amplified; His6 (N); made in house; host or cells: E. coli (BL21-CodonPlus(DE3)-RIPL for p38δ; BL21(DE3) for GST-VBC)
Assay: In vitro ternary complex pull-down with GST-VBC bait, purified p38δ
Format: binding
Description: FIGS. 15A, 15B, and 15C. Differential p38δ:PROTAC:VHL ternary complex affinities result in distinct cellular ubiquitination outcomes. (A) Both exemplary compound 50 and 46 pull-down p38δ in vitro, however compound 46 maintains ternary complex at lower concentrations. As in FIG. 14A, GST-tagged VBC was used as a bait to trap recombinant p38δ in the presence of vehicle (DMSO) or the indicated concentrations of compound 50 or 46. The rightmost lane represents a 1:25 dilution of initial input protein used in each pull-down. […] GST-VBC was immobilized on glutathione sepharose beads and incubated with MDA-MB-231 whole cell lysate (WCL) in the presence of vehicle (DMSO) or the indicated concentrations of compound 50 or 46. Beads were washed and “trapped” proteins (i.e. those that engage in a ternary complex) were eluted with SDS sample buffer and separated by SDS-PAGE. Samples were assessed by western blot and CUL2 and α-tubulin serve as positive and negative GST-VBC immunoprecipitation controls, respectively. (C) Only exemplary compound 46 ubiquitinates FLAG-p38δ in HeLa cells. As in FIG. 14C, HeLa cells were co-transfected with HA-Ub and FLAG-p38δ and were either treated with vehicle (DMSO) or 1 μM of compound 50 or 1 μM of compound 46 for 2 hours. FLAGimmunoprecipitated lysates were separated by SDS-PAGE and assessed via western blots detecting HA (Ub). […]

T1 sequence (O15264 whole entry, the tested form may be a part): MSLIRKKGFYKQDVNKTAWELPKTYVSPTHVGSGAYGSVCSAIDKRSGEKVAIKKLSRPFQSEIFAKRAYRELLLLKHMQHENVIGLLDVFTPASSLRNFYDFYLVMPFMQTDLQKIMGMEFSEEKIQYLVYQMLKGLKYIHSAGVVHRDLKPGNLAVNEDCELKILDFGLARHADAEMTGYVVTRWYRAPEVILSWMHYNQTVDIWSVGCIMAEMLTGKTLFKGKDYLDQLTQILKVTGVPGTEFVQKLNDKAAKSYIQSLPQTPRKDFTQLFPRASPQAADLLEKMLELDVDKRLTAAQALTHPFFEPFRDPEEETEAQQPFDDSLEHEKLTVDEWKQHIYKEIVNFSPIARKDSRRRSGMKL
T1 sequence (P40337 whole entry, the tested form may be a part): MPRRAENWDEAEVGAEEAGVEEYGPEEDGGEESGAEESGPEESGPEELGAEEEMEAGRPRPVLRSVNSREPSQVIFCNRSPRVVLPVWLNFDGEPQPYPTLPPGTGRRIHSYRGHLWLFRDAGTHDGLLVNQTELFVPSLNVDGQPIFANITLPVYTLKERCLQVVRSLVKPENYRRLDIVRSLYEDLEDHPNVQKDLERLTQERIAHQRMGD
T1 sequence (Q15370 whole entry partner, the tested form may be a part): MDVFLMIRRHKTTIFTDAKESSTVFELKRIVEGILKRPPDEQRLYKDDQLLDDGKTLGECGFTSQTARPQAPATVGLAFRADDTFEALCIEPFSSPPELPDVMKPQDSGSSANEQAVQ
T1 sequence (Q15369 whole entry partner, the tested form may be a part): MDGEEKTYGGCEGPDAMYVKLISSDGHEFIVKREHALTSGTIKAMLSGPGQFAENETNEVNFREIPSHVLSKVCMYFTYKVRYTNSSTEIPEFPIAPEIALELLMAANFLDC

Structure (SMILES) | pull-down of purified p38δ on GST-VBC-coated beads
COc1cc2c(Oc3ccc(NC(=O)C4(C(=O)Nc5ccc(F)cc5)CC4)cc3F)ccnc2cc1OCCOCCOCCOc1cc(-c2scnc2C)ccc1CNC(=O)[C@@H]1C[C@@H](O)CN1C(=O)[C@H](C(C)C)N1Cc2ccccc2C1=O [compound 46] | slightly greater ternary complex pull-down efficiency
COc1cc2c(Oc3ccc(NC(=O)C4(C(=O)Nc5ccc(F)cc5)CC4)cc3F)ccnc2cc1OCCCCOCCCCOCC(=O)N[C@H](C(=O)N1C[C@H](O)C[C@H]1C(=O)NCc1ccc(-c2scnc2C)cc1)C(C)(C)C [compound 50, N-(3-fluoro-4-((7-(4-(4-(2-(((S)-1-((2S,4R)-4-hydroxy-2-((4-(4-methylthiazol-5-yl)benzyl)carbamoyl)pyrrolidin-1-yl)-3,3-dimethyl-1-oxobutan-2-yl)amino)-2-oxoethoxy)butoxy)buto-xy)-6-methoxyquinolin-4-yl)oxy)phenyl)-N-(4-fluorophenyl)cyclopropane-1,1-dicarboxa-mide] | able to pull-down purified p38δ on GST-VBC-coated beads in a dose-dependent manner
